Source: ChEMBL document CHEMBL1129576, “Nucleosides and nucleotides. 158. 1-(3-C-ethynyl-beta-D-ribo-pentofuranosyl)-cytosine, 1-(3-C-ethynyl-beta-D-ribo-pentofuranosyl)uracil, and their nucleobase analogues as new potential multifunctional antitumor nucleosides with a broad spectrum of activity” (J Med Chem, 1996)

What was measured:
KB = experiment: In vitro tumor cell growth inhibitory activity against human nasopharyngeal KB cell lines; type: functional, cell-based
L1210 = experiment: In vitro tumor cell growth inhibitory activity against mouse leukemia L1210 cell lines.; type: functional, cell-based

## C#CC1(O)[C@@H](CO)O[C@@H](n2cnc3c(O)nc(N)nc32)[C@@H]1O (single isomer, unassigned)
KB
  IC50: > 300 µM
L1210
  IC50: > 300 µM

## C#C[C@@]1(O)[C@@H](CO)O[C@@H](n2cc(C)c(=O)[nH]c2=O)[C@@H]1O
KB
  IC50: > 300 µM
L1210
  IC50: > 300 µM

## C#CC1(O)[C@@H](CO)O[C@@H](n2cc(F)c(=O)[nH]c2=O)[C@@H]1O (single isomer, unassigned)
KB
  IC50: 1.4 µM
L1210
  IC50: 2.5 µM

## C#C[C@]1(O)[C@@H](CO)OC(n2cc(F)c(N)nc2=O)[C@@H]1O (single isomer, unassigned)
KB
  IC50: 0.46 µM
L1210
  IC50: 0.53 µM
